Measurements as given in PMC9192788, “Identification of a D-galacturonate reductase efficiently using NADH as a cofactor” (Biotechnology Reports, 2022).

Legend:
[1] = system: T1, Gaa1 (E. gracilis D-galacturonate reductase); test: NAD(P)H oxidation, absorbance at […] nm; format: biochemical, Euglena gracilis; conditions: 1 mM NADPH, 0.1 M Na-phosphate pH 7, 30°C
T1 construct: full-length 420 aa, C-terminal 6xHis tag kept, synthetic codon-optimized gene expressed in S. cerevisiae, IMAC purified, ~45 kDa; primer-encoded N-terminus MVDVLMVGT

[2] = system: T1, Gaa1 (E. gracilis D-galacturonate reductase); test: reverse reaction with NADP; format: biochemical, Euglena gracilis; conditions: 1 mM NADP, 0.1 M Na-phosphate pH 7, 30°C
Description: reverse reaction with NADP on Gaa1 (E. gracilis D-galacturonate reductase)

| SMILES | Km [1] | Km [2] |
| --- | --- | --- |
| O=C(O)[C@H]1OC(O)[C@H](O)[C@@H](O)[C@H]1O (stereo partly drawn) [GalUA, D-galacturonate] | 300 µM | – |
| O=C(O)[C@@H](O)[C@H](O)[C@H](O)[C@@H](O)CO [L-galA, L-galactonate] | – | 700 µM |
